The source of these data is patent US20250134907A1, “FUSED DIAZEPINES AS AGONISTS OF THE INSULIN-LIKE 3 (INSL3) PEPTIDE RECEPTOR RXFP2 AND METHODS OF USE THEREOF” (The United States of America,as represented by the …, priority 2022, published 2025).

Bridges are numbered along the chain shown (N, C = ends). Roman numbers before positions name the chains, in order. Where no end group is shown, it is not given here.

Test [1] has as its system chimera RXFP2-1 (extracellular domain of RXFP2, transmembrane domain of RXFP1). Kind of test: HTRF cAMP assay in HEK293T cells transiently transfected with chimera RXFP2-1. The format is cell-based, human. An excerpt: (§1) To further investigate the involvement of the RXFP2 extracellular and transmembrane domains in agonist activation of the receptor, two complementary chimeras were created using the RXFP1 receptor, which is not activated by the agonists of formula (I), to transiently transfect HEK293T cells and measured changes in cAMP induction using the HTRF assay.
(§2) Chimeric receptors were generated by IN-FUSION™ (Takara Bio USA, Inc., San Jose, CA) mutagenesis using full-length human RXFP1 and RXFP2 receptor constructs. Polymerase chain reaction (PCR) was performed using PfuTurbo high-fidelity DNA polymerase (Agilent Technologies, Santa Clara, CA) and overlapping primers with at least 15 bp sequence homology within the fusion site. PCR products were digested with Dpnl restricton enzyme at 37° C. overnight, run on a 0.8% agarose gel and purified using the GENEJET™ Gel extraction kit (Thermo Scientific, Waltham, MA). The purified DNA fragments were then ligated into the BamHI and XhoI pre-digested pcDNA3.1™/Zeo(+) AmpR mammalian expression vector using the In-Fusion HD enzyme premix (Clontech, Mountain View, CA) at 50° C. for 15 minutes, and the resulting product was used to transform Stellar competent cells (Takara Bio USA, Inc., San Jose, CA). The clones were fully sequenced to confirm the correct fusion of both receptor fragments. Chimera RXFP2-1 contained the extracellular domain of RXFP2 and the transmembrane domain of RXFP1. Accordingly, chimera RXFP1-2 contained the extracellular domain of RXFP1 and the transmembrane domain of RXFP2.
(§3) HEK293T cells were seeded in 6-well flat-bottom clear plates at 0.5 million cells/well in 2 mL/well of growth medium (DMEM, 10% FBS, 1× Pen/Strep) and allowed to attach overnight at 37° C. and 5% CO2. The next morning, cells were transfected with 2 μg of plasmid (chimeric receptors, WT RXFP2, or WT RXFP1) and 6 μl of Lipofectamine2000 (Invitrogen, Waltham, MA) in a total volume of 200 μl/well OPTI-MEM™ I (Thermo Fisher, Waltham, MA) reduced serum medium and allowed to incubate an additional 24 hours. The next day, transfected cells were seeded in 96-well flat-bottom opaque plates at 30,000 cells/well in 60 μL/well of serum-free DMEM medium and allowed to attach overnight at 37° C. at 5% CO2. The next morning, cells were treated with 1 μL/well of compound (25 μM-0.25 nM), 2 μM forskolin, or DMSO vehicle. Cells were also treated with 4 μL of positive control INSL3 (100-0.01 nM), Relaxin2 (100-10 nM), or vehicle (serum-free DMEM+IBMX). Plates were incubated for 1 hour at 37° C. and 5% CO2, after which kit cAMP-d2 and anti-cAMP antibody were added as previously described. Cells were incubated for 1 hour at room temperature, and then the signal was read on a CLARIOstar plate reader (BMG Labtech, Germany).

The test system of test [2] is chimera RXFP1-2 (extracellular domain of RXFP1, transmembrane domain of RXFP2). The test can be described thus: HTRF cAMP assay in HEK293T cells transiently transfected with chimera RXFP1-2. The format is cell-based, human.
Text: as §1, §2, §3

A further test addresses T1, WT RXFP2 (Homo sapiens, UniProt Q8WXD0).
T1 construct: using full-length human RXFP1 and RXFP2 receptor constructs; FLAG; expressed in transfected cells; host or cells: HEK293T (transient, Lipofectamine2000)
The test can be described thus: HTRF cAMP assay in HEK293T cells transiently transfected with WT RXFP2. The format is cell-based.
Text: as §1, §2, §3
On the technique in general: In TR-FRET formats the signal depends on donor and acceptor labels being close together.

T1 sequence (Q8WXD0 whole entry): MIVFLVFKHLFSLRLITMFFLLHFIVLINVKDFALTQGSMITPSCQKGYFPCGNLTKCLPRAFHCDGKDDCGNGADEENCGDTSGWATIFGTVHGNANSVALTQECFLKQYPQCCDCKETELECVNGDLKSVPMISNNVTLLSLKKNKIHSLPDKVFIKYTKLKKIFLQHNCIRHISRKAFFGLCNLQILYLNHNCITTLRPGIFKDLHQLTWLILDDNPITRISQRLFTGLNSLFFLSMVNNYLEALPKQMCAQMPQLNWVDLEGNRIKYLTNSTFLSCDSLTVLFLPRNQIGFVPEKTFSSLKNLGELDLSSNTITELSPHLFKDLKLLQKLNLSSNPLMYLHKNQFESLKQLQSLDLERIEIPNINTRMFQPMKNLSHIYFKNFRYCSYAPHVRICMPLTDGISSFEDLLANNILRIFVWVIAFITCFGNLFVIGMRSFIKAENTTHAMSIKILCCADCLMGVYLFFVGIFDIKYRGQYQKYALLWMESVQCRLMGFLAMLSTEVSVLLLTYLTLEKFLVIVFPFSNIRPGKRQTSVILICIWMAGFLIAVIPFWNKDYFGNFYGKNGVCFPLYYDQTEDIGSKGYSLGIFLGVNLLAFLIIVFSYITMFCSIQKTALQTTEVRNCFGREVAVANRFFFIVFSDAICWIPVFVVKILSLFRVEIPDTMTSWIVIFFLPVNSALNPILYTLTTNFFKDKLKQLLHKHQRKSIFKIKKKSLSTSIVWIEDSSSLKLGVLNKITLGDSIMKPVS

“I: PTPEMREKLCGHHFVRALVRVCGGPRWSTEA / II: AAATNPARYCCLSGCTQQDLLTLCPY (disulfide I:10-II:11, I:22-II:24, II:10-II:15) [INSL3]”: the “cAMP response of chimera RXFP2-1” value in test [1] is “levels comparable to WT RXFP2”. Besides, the Emax (commonly the greatest response seen or fitted, relative to the assay's reference) in test [1] (RXFP2-1 chimera, normalized to 2 μM forskolin cAMP response as 100% activity) was determined as 92.30 ± 21.82%; on WT RXFP2 (HEK-293T, normalized to 2 μM forskolin cAMP response as 100% activity), 78.4 ± 11.2%. In addition, the 50% effective concentration (EC50) (in general, the midpoint of the concentration-response curve) is 0.00074 ± 0.00061 µM in test [1] (RXFP2-1 chimera, read-out: EC50 (μM or nM)) and 0.0005 ± 0.00035 µM at WT RXFP2 (read-out: EC50 (μM or nM)). In addition, in test [2], the “cAMP response of chimera RXFP1-2” value is reported as “did not respond”.
